In article PMC4306533, “Distinct Features of Cap Binding by eIF4E1b Proteins” (Journal of Molecular Biology, 2015):

Experiments:
XeIF4E1a [1] = target: T1, XeIF4E1a (Xenopus laevis, UniProt P48597); assay: time-synchronized fluorescence titration of cap analogue binding; details: for ΔΔG^o + glycerol XeIF4E1a / ΔΔG^o − glycerol XeIF4E1a: change relative to m^7GTP; for ΔΔG^o + glycerol XeIF4E1a / Kas + glycerol XeIF4E1a: 10% glycerol; for ΔΔG^o − glycerol XeIF4E1a: without glycerol; for Kas + glycerol XeIF4E1a / Kas − glycerol XeIF4E1a: equilibrium association constant; for Kas − glycerol XeIF4E1a: buffer without glycerol
T1 construct: made in house; host or cells: E. coli Rosetta2(DE3)
Description: (§1) The time-synchronized fluorescence titration method, widely used to determine the affinity constants of cap–eIF4E complexes [[20,22–26]], measures the quenching of the intrinsic fluorescence of tryptophan residues due to cap binding (Fig. S2). Knowledge of the equilibrium association constant Kas enables the calculation of the free-energy changes involved in the interaction between eIF4E and ligand, according to the standard equation ΔG° = − RTlnKas.
(§2) For human eIF4E1a and eIF4E1b and also for Xenopus eIF4E1a and its mutated forms, measurements were carried out using 0.1 μM protein in 50 mM Hepes/KOH (pH 7.2), 134.5 mM KCl, 0.5 mM EDTA and 1 mM DTT. For Xenopus eIF4E1b(ΔN27), the concentration was 0.2 μM and glycerol was added to the buffer to 10% (v/v) final concentration. […] Fluorescence of measured samples was excited at 280 nm (2.5 nm bandwidth) and detected at 337 nm or 330 nm (4 nm bandwidth), thus reducing the signal originated from the free cap analogues. Measurements were carried out on a LS-55 spectrofluorometer (Perkin Elmer Co.) using freshly prepared proteins, and the fluorescence intensities were corrected for sample dilution and the inner filter effect.
(§3) Equilibrium association constants (Kas) were determined by fitting the theoretical dependence of fluorescence intensity on the total concentration of the cap analogue to the experimental data points, according to the equation described previously (see Ref. [22] and Fig. S2c).
(§4) The final Kas was calculated as a weighted average of 2–6 independent titrations with the weights taken as the reciprocal of the numerical standard deviation squared. Numerical, nonlinear least-squares regression analysis was performed using Origin 6.0 (Microcal Software Inc.). Obtained association constants were used to determine the Gibbs free energy according to the standard equation ΔG° = − RTlnKas.

XeIF4E1a [2] = assay: as above; parameters: species or system Xenopus laevis; details: without glycerol
Description: as §1, §2, §3, §4

heIF4E1a = target: T2, heIF4E1a (Homo sapiens, UniProt P06730); assay: as above; details: for ΔΔG^o − glycerol heIF4E1a: change relative to m^7GTP, without glycerol; for Kas − glycerol heIF4E1a: equilibrium association constant, buffer without glycerol
T2 construct: made in house; host or cells: E. coli Rosetta2(DE3)
Description: as §1, §2, §3, §4

heIF4E1b [3] = target: T3, heIF4E1b (Homo sapiens, UniProt A6NMX2); assay: as above; details: for ΔΔG^o − glycerol heIF4E1b: change relative to m^7GTP, without glycerol; for Kas − glycerol heIF4E1b: equilibrium association constant, buffer without glycerol
T3 construct: made in house; host or cells: E. coli Rosetta2(DE3)
T3 sequence (A6NMX2 1-242): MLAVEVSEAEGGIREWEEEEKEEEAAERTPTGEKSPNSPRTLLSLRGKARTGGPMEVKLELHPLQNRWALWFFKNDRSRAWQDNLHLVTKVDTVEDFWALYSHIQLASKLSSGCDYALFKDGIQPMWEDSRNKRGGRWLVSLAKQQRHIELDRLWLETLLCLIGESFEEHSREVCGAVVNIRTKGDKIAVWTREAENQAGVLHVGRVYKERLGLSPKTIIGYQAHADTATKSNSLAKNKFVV
Description: as §1, §2, §3, §4

heIF4E1b [4] = assay: as above; parameters: species or system human; details: without glycerol
Description: as §1, §2, §3, §4

XeIF4E1bΔN27 = assay: as above; parameters: species or system Xenopus laevis; details: for Ratio Kas (X4E1a) to Kas (X4E1bΔN27) / ΔΔG^o + glycerol XeIF4E1bΔN27 / Kas + glycerol XeIF4E1bΔN27: 10% glycerol; for ΔΔG^o + glycerol XeIF4E1bΔN27: change relative to m^7GTP; for Kas + glycerol XeIF4E1bΔN27: equilibrium association constant
Description: as §1, §2, §3, §4

X4E1a1 (E101S) = target: T4, X4E1a1 (E101S) (Xenopus laevis, UniProt P48597, E101S); assay: fluorescence titration, XeIF4E1a mutant; format: binding; details: mutant (E101S) of XeIF4E1a
T4 construct: made in house; host or cells: E. coli Rosetta2(DE3)
Description: (§5) We tested the effect on cap-binding activity of these positions in the fluorescence assay with six mutated recombinant versions of Xenopus eIF4E1a (Fig. S4). The amino acids were introduced in XeIF4E1a sequentially in the order: E101S/K102R/S195A/M82S/T206L/T207S (numbering of the XeIF4E1a sequence is shifted backward by 4 amino acids relative to XeIF4E1b). […] The biggest contribution to the weaker cap binding of XeIF4E1a, in each case about 20%, resulted from changing Glu101 to Ser and Thr206 to Leu coupled with Thr207 to Ser, with the remaining mutations having only minor effects. […] Glu101 is a solvent-accessible amino acid and is proximal to Trp98 in the S3-S4 loop. […] Attenuation of the cap-binding affinity of XeIF4E1a resulting from mutating Thr206 and Thr207 is consistent with our results mentioned above showing significant influence of C-terminal loop residues on binding phosphate and the second nucleotide.
(§6) For human eIF4E1a and eIF4E1b and also for Xenopus eIF4E1a and its mutated forms, measurements were carried out using 0.1 μM protein in 50 mM Hepes/KOH (pH 7.2), 134.5 mM KCl, 0.5 mM EDTA and 1 mM DTT. For Xenopus eIF4E1b(ΔN27), the concentration was 0.2 μM and glycerol was added to the buffer to 10% (v/v) final concentration. […] The gradually increasing concentration of cap analogue quenches protein fluorescence without shifting the spectrum maximum, while at high concentrations, the fluorescence signal of free cap analogue dominates over the fluorescence from other solution components including free eIF4E and eIF4E in complex with cap (Fig. S2a). Fluorescence of measured samples was excited at 280 nm (2.5 nm bandwidth) and detected at 337 nm or 330 nm (4 nm bandwidth), thus reducing the signal originated from the free cap analogues. Measurements were carried out on a LS-55 spectrofluorometer (Perkin Elmer Co.) using freshly prepared proteins, and the fluorescence intensities were corrected for sample dilution and the inner filter effect.
(§7) Equilibrium association constants (Kas) were determined by fitting the theoretical dependence of fluorescence intensity on the total concentration of the cap analogue to the experimental data points, according to the equation described previously (see Ref. [22] and Fig. S2c). […] Along with Kas and the concentration of the active protein [P0^act], other parameters such as fL and ∆f = fPact − fPL are also gained from the fit, where fL represents the fluorescence efficiency of free cap analogue and ∆f represents the difference between the fluorescence efficiencies of the apo-protein and the complex (Fig. S2c).
as §4

X4E1a1’ (K102R) = target: T5, X4E1a1’ (K102R) (Xenopus laevis, UniProt P48597, K102R); assay: fluorescence titration, XeIF4E1a mutant; format: binding; details: mutant (K102R) of XeIF4E1a
T5 construct: made in house; host or cells: E. coli Rosetta2(DE3)
Description: as §5, §6, §7, §4

X4E1a2 (E101S/K102R) = target: T6, X4E1a2 (E101S/K102R) (Xenopus laevis, UniProt P48597, E101S/K102R); assay: fluorescence titration, XeIF4E1a mutant; format: binding; details: mutant (E101S/K102R) of XeIF4E1a
T6 construct: made in house; host or cells: E. coli Rosetta2(DE3)
Description: as §5, §6, §7, §4

[5] = target: T7, X4E1a3 (E101S/K102R/S195A) (Xenopus laevis, UniProt P48597, E101S/K102R/S195A); assay: fluorescence titration, XeIF4E1a mutant; format: binding; details: mutant (E101S/K102R/S195A) of XeIF4E1a
T7 construct: made in house; host or cells: E. coli Rosetta2(DE3)
Description: as §5, §6, §7, §4

[6] = target: T8, X4E1a4 (E101S/K102R/S195A/M82S) (Xenopus laevis, UniProt P48597, E101S/K102R/M82S/S195A); assay: fluorescence titration, XeIF4E1a mutant; format: binding; details: mutant (E101S/K102R/S195A/M82S) of XeIF4E1a
T8 construct: made in house; host or cells: E. coli Rosetta2(DE3)
Description: as §5, §6, §7, §4

[7] = target: T9, X4E1a6 (E101S/K102R/S195A/M82S/T206L/T207S) (Xenopus laevis, UniProt P48597, E101S/K102R/M82S/S195A/T206L/T207S); assay: fluorescence titration, XeIF4E1a mutant; format: binding; details: for Kas X4E1a6: mutant (E101S/K102R/S195A/M82S/T206L/T207S) of XeIF4E1a
T9 construct: made in house; host or cells: E. coli Rosetta2(DE3)
Description: as §5, §6, §7, §4

T4 sequence (P48597 whole entry E101S): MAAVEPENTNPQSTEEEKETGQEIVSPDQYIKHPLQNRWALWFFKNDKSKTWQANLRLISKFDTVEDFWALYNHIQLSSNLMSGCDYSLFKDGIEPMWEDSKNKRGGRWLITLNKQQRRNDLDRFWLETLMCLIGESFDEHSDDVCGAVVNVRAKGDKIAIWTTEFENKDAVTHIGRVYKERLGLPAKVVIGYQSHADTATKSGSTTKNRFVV
T8 sequence (P48597 whole entry M82S/E101S/K102R/S195A): as the sequence (P48597 whole entry E101S) above, with M82S, K102R, S195A counted along it
T6 sequence (P48597 whole entry E101S/K102R): as the sequence (P48597 whole entry E101S) above, with K102R counted along it
T9 sequence (P48597 whole entry M82S/E101S/K102R/S195A/T206L/T207S): as the sequence (P48597 whole entry E101S) above, with M82S, K102R, S195A, T206L, T207S counted along it
T2 sequence (P06730 whole entry): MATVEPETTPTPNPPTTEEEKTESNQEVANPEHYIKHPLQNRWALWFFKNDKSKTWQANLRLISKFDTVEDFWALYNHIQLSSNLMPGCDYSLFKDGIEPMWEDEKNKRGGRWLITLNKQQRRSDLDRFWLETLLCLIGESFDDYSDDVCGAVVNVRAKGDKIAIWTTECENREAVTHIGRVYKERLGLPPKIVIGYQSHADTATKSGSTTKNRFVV
T1 sequence (P48597 whole entry): as the sequence (P48597 whole entry E101S) above, with S101E counted along it
T7 sequence (P48597 whole entry E101S/K102R/S195A): as the sequence (P48597 whole entry E101S) above, with K102R, S195A counted along it
T5 sequence (P48597 whole entry K102R): as the sequence (P48597 whole entry E101S) above, with S101E, K102R counted along it

ΔΔG^o + glycerol XeIF4E1a (XeIF4E1a [1])	ΔΔG^o − glycerol XeIF4E1a (XeIF4E1a [1])	Kas + glycerol XeIF4E1a (XeIF4E1a [1])	Kas − glycerol XeIF4E1a (XeIF4E1a [1])	Ratio Kas (h4E1a) to Kas (X4E1a) (XeIF4E1a [2])	ΔΔG^o − glycerol heIF4E1a (heIF4E1a)	Kas − glycerol heIF4E1a (heIF4E1a)	ΔΔG^o − glycerol heIF4E1b (heIF4E1b [3])	Kas − glycerol heIF4E1b (heIF4E1b [3])	Ratio Kas (h4E1a) to Kas (h4E1b) (heIF4E1b [4])	Ratio Kas (X4E1a) to Kas (X4E1bΔN27) (XeIF4E1bΔN27)	ΔΔG^o + glycerol XeIF4E1bΔN27 (XeIF4E1bΔN27)	Kas + glycerol XeIF4E1bΔN27 (XeIF4E1bΔN27)	Kas X4E1a1 (X4E1a1 (E101S))	Kas X4E1a1’ (X4E1a1’ (K102R))	Kas X4E1a2 (X4E1a2 (E101S/K102R))	Kas X4E1a3 [5]	Kas X4E1a4 [6]	Kas X4E1a6 [7]	Structure (SMILES)	also measured
2.844 ± 0.042 kcal/mol	2.897 ± 0.051 kcal/mol	0.176 ± 0.011 μM^− 1	0.295 ± 0.021 μM^− 1	1.22	3.052 ± 0.045 kcal/mol	0.362 ± 0.008 μM^− 1	2.557 ± 0.041 kcal/mol	0.272 ± 0.009 μM^− 1	1.33	0.70	2.00 ± 0.11 kcal/mol	0.253 ± 0.046 μM^− 1	0.350 ± 0.015 µM⁻¹	0.268 ± 0.012 µM⁻¹	0.306 ± 0.046 µM⁻¹	0.193 ± 0.019 µM⁻¹	0.317 ± 0.054 µM⁻¹	0.185 ± 0.012 µM⁻¹	CN(C)c1nc2c(c(=O)[nH]1)[n+](C)cn2[C@@H]1O[C@H](COP(=O)(O)OP(=O)(O)OP(=O)(O)O)[C@@H](O)[C@H]1O [m^2,2,7GTP]	
0.900 ± 0.035 kcal/mol	0.984 ± 0.050 kcal/mol	4.97 ± 0.22 μM^− 1	7.89 ± 0.57 μM^− 1	1.65	0.965 ± 0.045 kcal/mol	13.04 ± 0.31 μM^− 1	0.639 ± 0.045 kcal/mol	7.34 ± 0.34 μM^− 1	1.78	2.20	0.722 ± 0.059 kcal/mol	2.26 ± 0.20 μM^− 1	7.14 ± 0.63 µM⁻¹	7.38 ± 0.18 µM⁻¹	7.132 ± 0.088 µM⁻¹	6.23 ± 0.17 µM⁻¹	8.21 ± 0.51 µM⁻¹	4.41 ± 0.16 µM⁻¹	CCn1c[n+]([C@@H]2O[C@H](COP(=O)(O)OP(=O)(O)OP(=O)(O)O)[C@@H](O)[C@H]2O)c2nc(N)[nH]c(=O)c21 [et^7GTP]	fold decrease of association constant relative to m^7GTP (XeIF4E1a [1]; N^7-methyl replaced by ethyl): approximately 5 fold; fold decrease of association constant relative to m^7GTP (heIF4E1a; N^7-methyl replaced by ethyl): approximately 5 fold; fold decrease of association constant relative to m^7GTP (heIF4E1b [3]; N^7-methyl replaced by ethyl): 3 fold; fold decrease of association constant relative to m^7GTP (XeIF4E1bΔN27; N^7-methyl replaced by ethyl): 3 fold
		23.34 ± 0.88 μM^− 1	42.8 ± 2.0 μM^− 1					22.0 ± 1.4 μM^− 1				7.80 ± 0.41 μM^− 1	33.58 ± 0.66 µM⁻¹	34.3 ± 1.7 µM⁻¹	32.76 ± 0.51 µM⁻¹	28.1 ± 1.5 µM⁻¹	26.7 ± 2.2 µM⁻¹	19.8 ± 0.4 µM⁻¹	Cn1c[n+]([C@@H]2O[C@H](COP(=O)([O-])OP(=O)(O)OP(=O)(O)O)[C@@H](O)[C@H]2O)c2nc(N)[nH]c(=O)c21 [m^7GTP]	decrease of association constant compared to wild-type XeIF4E1a ([7]; all six residues replaced): 50%
